Assay results taken from patent publication US7008924B1, “VGF fusion polypeptides” (Amgen, Inc., priority 1999, dated 2006).

System: VGF knockout mice
Assay: Biological activity of VGF polypeptide in knockout mice (body weight)
Assay type: in vivo
Conditions: VGF gene knockout mice; intraperitoneal injection of 2 mg twice daily for five days; three of the four treated mice
Description: The biological activity of VGF polypeptides in knockout mice was analyzed using VGF polypeptides synthesized by the Amgen Boulder Peptide Technology group using standard peptide synthesis protocols. Following peptide synthesis, VGF polypeptides from different batches were pooled and lyophilized. The peptide content for each VGF polypeptide was determined by hydrolysis with HCl.
VGF gene knockout mice were obtained from Steve Salton of Mt. Sinai School of Medicine, New York, N.Y. Prior to administration of VGF polypeptide, knockout mice were housed under LD 12:12 conditions (i.e., 12 hours of light and 12 hours of dark). Twenty-four hours before VGF polypeptide injection, knockout mice were individually caged and moved to a temporary housing room where the mice were kept for the remainder of the experiment under LD 12:12 conditions.
VGF polypeptide was administered to knockout mice twice daily (at 9:00 a.m. and 6:00 p.m.) by intraperitoneal injection of 2 mg of VGF-1a (SEQ ID NO: 2; Table I). Prior to injection, VGF-1a polypeptide was diluted to 16% in aCSF Solution Buffer (126.6 mM NaCl, 2.6 mM KCl, 2.0 mM MgCl2 and 1.4 mM CaCl2, 10 mM NaPO4, pH 7.4). Knockout mice were administered VGF-1a polypeptide for five days and the body weight of each mouse was measured daily. The body weight of treated mice was measured daily for three days following the withdrawal of VGF-1a polypeptide.

VGF-1a: VGF polypeptide, amino acid sequence AQEEADAEE (listed as Rattus norvegicus)
gain in body weight: 10–15%
